In US11555014B2, “High penetration prodrug compositions of prostaglandins and related compounds” (Techfields Pharma Co., Ltd., priority 2006, dated 2023):

Tests used:
[1] = In vitro penetration rate across isolated human skin in modified Franz cells; conditions: for In vitro penetration rate (apparent flux), parent compounds: 10% suspension in pH 7.4 phosphate buffer (0.2 M), n=5, lowest detectable flux 1 μg/cm^2/h; for In vitro penetration rate (apparent flux), prodrug compounds: 10% solution in pH 7.4 phosphate buffer (0.2 M), n=5
Protocol: The penetration rates of HPPs and their parent drugs through human skin were measured in vitro by modified Franz cells. The Franz cells have two chambers, the top sample chamber and the bottom receiving chamber. The human skin tissue (360-400 μm thick) that separates the top and the receiving chambers was isolated from the anterior or posterior thigh areas.
The compound tested (2 mL, 20% in 0.2 M phosphate buffer, pH. 7.4) were added to the sample chamber of a Franz cell. The receiving chamber contains 10 ml of 2% bovine serum albumin in saline which was stirred at 600 rpm. The cumulative amounts of the tested compounds penetrating the skin versus time were determined by high-performance liquid chromatography (HPLC) method.

[2] = system: cats with ocular hypertension; test: Intraocular pressure (IOP) reduction in cats with ocular hypertension produced by laser trabeculoplasty; type: in vivo, cat
Protocol: The ability of certain compounds of the present invention to reduce intraocular pressure (IOP) was evaluated in cats with ocular hypertension produced by previously done laser trabeculoplastry. IOP was determined with a pneumatonometer after light corneal anesthesia with dilute proparacaine. Baseline IOP was determined prior to treatment with the test compound aqueous solution. 6 divided doses were administered over a period of 3 days (once every 12 hours). IOP was determined 24 hours after the initial dose and then once every 12 hours. The therapeutically efficient amount is typically between 0.001 and 0.01% in pH 7.2 phosphate buffer (0.1 M). The treatment was carried out in that one drop (about 30 micro liter) of the composition. The results of N,N-diethylaminoethyl 11,15-dihydroxy-9-oxoprost-13-en-1-oate.AcOH (A), N,N-diethylaminoethyl 11,15-dihydroxyl-9-oxoprosta-5,13-dien-1-oate.AcOH (B), N,N-diethylaminoethyl 9,11,15-trihydroxyprosta-5,13-dien-1-oate.AcOH(C), N,N-diethylaminoethyl 9,11-dihydroxy-15-keto-20-ethylprost-5,13-dien-1-oate.AcOH (9,11-dihydroxy-15-keto-20-ethylprostaglandin F2α N,N-diethylaminoethyl ester) (D), N,N-diethylaminoethyl (Z)-7-{(1R,2R,3R,5S)-3,5-dihydroxy-2-[(1E,3R)-3-hydroxy-4-[(α,α,α-trifluoro-m-tolyl)oxy]-1-butenyl]cyclopentyl}-5-heptenoate.AcOH (E), N,N-diethylaminoethyl (Z)-7{(1R,2R,3R,5S)-3,5-dihydroxy-2-[(3R)-3-hydroxy-5-phenylpentyl]cyclopentyl}-5-heptenoate.AcOH (F), and N,N-diethylaminoethyl (Z)-7-{(1R,2R,3R,5S)-3,5-Dihydroxy-2-[(1E,3S)-3-hydroxy-5-phenyl-1-pentenyl]cyclopentyl}-heptenoate.AcOH (G) are shown in Table 2.

cat eye = test: Irritative effect or ocular discomfort in the cat eye after topical application; type: in vivo; conditions: first 2 hours, scale 0 (no discomfort) to 4 (maximal irritation, complete lid closure)
Protocol: Irritative effect or ocular discomfort in the cat eye of naturally occurring and modified prostaglandins and their novel prodrugs were evaluated during the first hours after the topical application of the respective test drug. The ocular discomfort was graded on a scale from 0 to 4, 0 indicating complete absence of any signs of discomfort, and 4 indicating maximal irritation as obvious from complete lid closure.

rabbit eye = test: Conjunctival hyperemia in the rabbit eye after topical application; type: in vivo; conditions: first 2 hours, scale 0 (no hyperemia) to 4 (marked hyperemia with conjunctive chemosis)
Protocol: Conjunctival hyperemia in the rabbit eye of naturally occurring and modified prostaglandins and their novel prodrugs was evaluated during the first 2 hours after topical application of the respective test drug. The conjunctival hyperemia was graded on a scale from 0 to 4, 0 indicating complete absence of any hyperemia, and 4 indicating marked hyperemia with conjunctive chemosis.

[3] = dose 0.001%, one drop topical every 12 hours, 6 doses

Structure (SMILES)	In vitro penetration rate (apparent flux), parent compounds [1] [mg/cm^2/h]	In vitro penetration rate (apparent flux), prodrug compounds [1] [mg/cm^2/h]	also measured
CCCCCC(C)(O)/C=C/[C@@H]1[C@@H](CC=C=CCCC(=O)OC)[C@@H](O)C[C@H]1O (some centres unmarked) [Prostalene, reference compound]	0.001	–	–
O=C(O)CCC/C=C\CC1C(O)CC(O)C1/C=C/C(O)COc1cccc(Cl)c1 (centres unmarked) [Cloprostenol, reference compound]	0.001	–	–
O=C(O)CCC/C=C\C[C@@H]1[C@@H](/C=C/[C@@H](O)COc2cccc(C(F)(F)F)c2)[C@H](O)C[C@@H]1O (racemic) [Fluprostenol, reference compound]	0.001	–	–
CC(=O)O.CCN(CC)CCOC(=O)CCC/C=C\C[C@@H]1[C@@H](/C=C/[C@@H](O)COc2cccc(C(F)(F)F)c2)[C@H](O)C[C@@H]1O [N,N-diethylaminoethyl (Z)-7-{(1R,2R,3R,5S)-3,5-dihydroxy-2-[(1E,3R)-3-hydroxy-4-[(α,α,α-trifluoro-m-tolyl)oxy]-1-butenyl]cyclopentyl}-5-heptenoate.AcOH]	–	0.91	Intraocular pressure, 24 hours after administration [2, 3]: 15.1 ± 0.4; Intraocular pressure, 36 hours after administration [2, 3]: 15.0 ± 0.5; Intraocular pressure, 48 hours after administration [2, 3]: 15.0 ± 0.4; Intraocular pressure, 60 hours after administration [2, 3]: 14.9 ± 0.3; Intraocular pressure, 72 hours after administration [2, 3]: 15.1 ± 0.4; Intraocular pressure, baseline ([2]; prior to treatment, group dosed 0.001%): 22.1 ± 0.4; Degree of irritative effect (cat eye; dose 0.001% topical): 1; Degree of irritative effect (conjunctival hyperemia) (rabbit eye; dose 0.001% topical): 1
CC(=O)O.CCN(CC)CCOC(=O)CCC=C=CCC1C(O)CC(O)C1C=CC(O)COc1ccccc1 (centres unmarked) [N,N-diethylaminoethyl 7-[3,5-dihydroxy-2-(3-hydroxy-4-phenoxy-1-butenyl)cyclopentyl]-4,5-heptadien-1-oate•AcOH]	–	0.81	–
CC(=O)O.CCCCCC(O)C=C[C@H]1C(O)CC(O)[C@@H]1CCCCCCC(=O)OCCN(CC)CC (some centres unmarked) [N,N-diethylaminoethyl 9,11,15-trihydroxyprost-13-en-1-oate•AcOH]	–	0.85	–
CC(=O)O.CCCCCC(O)C=C[C@H]1C(O)CC2OC(=CCCCC(=O)OCCN(CC)CC)C[C@@H]21 (some centres unmarked) [N,N-diethylaminoethyl 6,9-epoxy-11,15-dihydroxyprosta-5,13-dien-1-oate•AcOH]	–	1.11	–
CC(C)OC(=O)CCC/C=C\C[C@@H]1[C@@H](CC[C@@H](O)CCc2ccccc2)[C@H](O)C[C@@H]1O [Latanoprost, 13,14-dihydro-17-phenyl-18,19,20-trinor PGF2α isopropyl ester, reference compound]	0.001	–	Degree of irritative effect (cat eye; dose 0.001% topical): 2.5
CCNC(=O)CCC/C=C\C[C@@H]1[C@@H](/C=C/[C@@H](O)CCc2ccccc2)[C@H](O)C[C@@H]1O [Bimatoprost, reference compound]	0.001	–	Degree of irritative effect (cat eye; dose 0.001% topical): 2.5; Degree of irritative effect (conjunctival hyperemia) (rabbit eye; dose 0.001% topical): 2.5
CC(=O)O.CCCCCC(O)C=C[C@H]1C(O)CC(=O)[C@@H]1CC=CCCCC(=O)OCCN(CC)CC (some centres unmarked) [N,N-diethylaminoethyl 11,15-dihydroxy-9-oxoprosta-5,13-dien-1-oate.AcOH]	–	1.10	–
CCCCC[C@H](O)/C=C/[C@@H]1[C@@H](CCCCCCC(=O)O)[C@@H](O)C[C@H]1O [PGE1α, reference compound]	0.001	–	–
CCCCC[C@H](O)/C=C/[C@@H]1[C@H]2C/C(=C/CCCC(=O)O)O[C@H]2C[C@H]1O [PGI2, prostacyclin, reference compound]	0.001	–	–
CCCCC[C@H](O)/C=C/[C@@H]1[C@@H](C/C=C\CCCC(=O)O)[C@@H](O)C[C@H]1O [PGF2α, reference compound]	–	–	Degree of irritative effect (cat eye; dose 0.001% topical): 3.5; Degree of irritative effect (conjunctival hyperemia) (rabbit eye; dose 0.001% topical): 4
CCCCC(C)(O)C/C=C/[C@H]1[C@H](O)CC(=O)[C@@H]1CCCCCCC(=O)OC (mixture of isomers) [Misoprostol, reference compound]	0.001	–	–
COC(=O)CCC=C=CCC1C(O)CC(O)C1/C=C/C(O)COc1ccccc1 (centres unmarked) [fenprostalene, reference compound]	0.001	–	–
CCCCCCCC(=O)CC[C@@H]1[C@@H](C/C=C\CCCC(=O)O)[C@@H](O)C[C@H]1O [Unoprostone, 13,14-dihydro-15-keto-20-ethyl Prostaglandin F2α, reference compound]	0.001	–	Degree of irritative effect (cat eye; dose 0.01% topical): 2.5; Degree of irritative effect (conjunctival hyperemia) (rabbit eye; dose 0.01% topical): 2.5
CCCCC[C@H](O)/C=C/[C@H]1[C@H](O)CC(=O)[C@@H]1CCCCCCC(=O)O [PGE1, reference compound]	–	–	Degree of irritative effect (cat eye; dose 0.001% topical): 4; Degree of irritative effect (conjunctival hyperemia) (rabbit eye; dose 0.001% topical): 4
CS(=O)(=O)NC(=O)CCC/C=C\C[C@H]1C(=O)C[C@@H](O)[C@@H]1/C=C/[C@@H](O)COc1ccccc1 [Sulprostone, reference compound]	0.001	–	–
CC(=O)O.CCN(CC)CCOC(=O)CCCC=CCC1C(=O)CC(O)C1C=CC(O)COc1ccccc1 (centres unmarked) [N,N-diethylaminoethyl 7-[3-hydroxy-2-(3-hydroxy-4-phenoxy-1-butenyl)-5-oxocyclopentyl]-5-heptenoate•AcOH]	–	1.01	–
CC(=O)O.CCCCC(C)(O)CC=C[C@H]1C(O)CC(=O)[C@@H]1CCCCCCC(=O)OCCN(CC)CC (some centres unmarked) [N,N-diethylaminoethyl 11,16-dihydroxy-9-oxo-16-methylprost-13-en-1-oate•AcOH]	–	1.09	–
CC(=O)O.CCCCC(C)(C)C(O)C=C[C@H]1C(O)CC(=O)[C@@H]1CCCCC=CC(=O)OCCN(CC)CC (some centres unmarked) [N,N-diethylaminoethyl 11,15-dihydroxy-16,16-dimethyl-9-oxoprosta-2,13-dien-1-oate•AcOH]	–	0.88	–
CC(=O)O.CCN(CC)CCOC(=O)CCCC=CCC1C(O)CC(O)C1C=CC(O)COc1cccc(C(F)(F)F)c1 (centres unmarked) [N,N-diethylaminoethyl 7-{3,5-dihydroxy-2-[3-hydroxy-4-(3-trifluoromethylphenoxy)-1-butenyl]cyclopentyl}-5-heptenoate•AcOH]	–	0.86	–
CCCCC(C)(C)[C@H](O)/C=C/[C@H]1[C@H](O)CC(=O)[C@@H]1CCCC/C=C/C(=O)OC [Gemeprost, reference compound]	0.001	–	–
CC(=O)O.CCN(CC)CCOC(=O)CCCC=CCC1C(O)CC(O)C1C=CC(O)COc1cccc(Cl)c1 (centres unmarked) [N,N-diethylaminoethyl 7-{2-[4-(3-chlorophenoxy)-3-hydroxy-1-butenyl]-3,5-dihydroxycyclopentyl}-5-heptenoate•AcOH]	–	0.92	–
CCCCC[C@H](O)/C=C/[C@H]1[C@H](O)CC(=O)[C@@H]1C/C=C\CCCC(=O)O [PGE2, reference compound]	0.001	–	Degree of irritative effect (cat eye; dose 0.001% topical): 3.5; Degree of irritative effect (conjunctival hyperemia) (rabbit eye; dose 0.001% topical): 4
CCCCC[C@](C)(O)/C=C/[C@@H]1[C@@H](C/C=C\CCCC(=O)O)[C@@H](O)C[C@H]1O [Carboprost, reference compound]	0.001	–	–
CC(=O)O.CCCCCC(C)(O)C=C[C@H]1C(O)CC(O)[C@@H]1CC=C=CCCC(=O)OCCN(CC)CC (some centres unmarked) [N,N-diethylaminoethyl 9,11,15-trihydroxy-15-methylprosta-4,5,13-trien-1-oate•AcOH]	–	0.90	–
